# Test results taken from patent US6288091A, “Antiherpes virus compounds and methods for their preparation and use” (Boehringer Ingelheim Ltd., priority 1999, dated 2001).
# How the values were obtained:
# HSV-1 strain F or KOS = test: Inhibition of herpes simplex virus (HSV-1) replication in cell culture (BHK-21 cells, glycoprotein C ELISA); type: cell-based
# Experimental: B) Inhibition of Herpes Simplex Virus (HSV-1) Replication in Cell Culture
# BHK-21 cells clone 13 (ATCC CCL10) were incubated for two days in 850 cm^2 roller bottles (2×10^7 cells/bottle) with A-MEM medium (Gibco Canada Inc., Burlington, Ontario, Canada) supplemented with 8% (v/v) fetal bovine serum (FBS, Gibco Canada, Inc.). The cells were trypsinized and then 3,000 cells in 100 μL of fresh medium were transferred into each well of a 96-well microtiter plate. The cells were incubated at […] for a period of 3 days to reach a density of 50,000 cells per well. The cells were washed twice with 100 μL of α-MEM supplemented with 2% heat inactivated FBS and incubated for 1-2 hours in 100 μL of the same medium.
# Thereafter, the cells were infected with HSV-1 strain F or KOS (multiplicity of infection =0.05 PFU/cell) in 50 μL of α-MEM supplemented with 2% heat inactivated FBS. Following one hour of virus absorption at 37°, the medium was removed and the cells were washed with α-MEM supplemented with 2% heat inactivated FBS (2×100 μL). The cells were incubated with or without 100 μL of the appropriate concentration of test reagent in α-MEM medium supplemented with 2% heat inactivated FBS. After 24 hours of incubation at 37°, the extent of viral replication was determined by an ELISA assay; for instance, the following assay that detects the late glycoprotein C of HSV-1.
# Cells were fixed in the microtiter plate with 100 μL of 0.063% glutaraldehyde in phosphate buffered saline for 30 min at room temperature. The microtiter plate was then washed once with casein blocking solution and blocked with 200 μL of the same solution for one hour at room temperature. Thereafter, 100 μL of mAb C11 recognizing the glycoprotein C of HSV-1 (see E. Trybala et al., Journal of General Virology, 1994, 75, 743) was added to each well for two hours at room temperature. The plate was washed three times with phosphate buffered saline containing 0.05% polyoxyethylene (20) sorbitan monooleate. The cells were incubated with 100 μL of sheep anti-mouse IgG horseradish peroxidase for one hour at room temperature in the dark.
# The plate was washed three times with 200 μL of the above-noted phosphate buffer saline preparation, and then once with 0.1 M sodium citrate (pH 4.5). Thereafter, 100 μL of orthophenylenediamine dihydrochloride (OPD, Gibco, Canada Inc.) was added to each well. The plate was agitated on a microplate shaker for 30 min in the dark. Color development was monitored at 450 nm using a microplate spectrophotometer.
# SAS was used to calculate % inhibition of viral replication and to generate EC50 values.
# HCMV (strain AD169) [1] = test: Inhibition of HCMV replication, ELISA assay (Hs-68 cells); type: cell-based, Human Cytomegalovirus (HCMV); conditions: read-out: ELISA CMV EC50
# Experimental: (§1) C) Inhibition of Human Cytomegalovirus (HCMV) Replication
# (§2) The effect of compounds on the replication of HCMV has been measured by using an ELISA-based assay (ELISA) and a plaque reduction assay (PRA).
# Hs-68 cells (ATCC # CRL 1635) were seeded in 96 well microtiter plates at 10,000 cells/well in 100 μL of DMEM medium (Gibco Canada Inc.) supplemented with 10% fetal bovine serum (FBS, Gibco Canada Inc.). The plates were incubated for 3 days at 37° to allow the cells to reach 80-90% confluency prior to the assay.
# The medium was removed from wells by aspiration. The cells then were infected at a multiplicity of infection (MOI) of 0.01 PFU/cell with 50 μL of HCMV (strain AD169, ATCC VR-538) in DMEM medium supplemented with 5% heat inactivated FBS (assay medium). The virus was allowed to adsorb to cells for 2 h at 37°. Following viral adsorption, the medium was removed from the wells by aspiration. The cells were washed twice with 200 μL of assay medium to remove unabsorbed virus. The cells were then incubated with or without 100 μL of appropriate concentrations of test reagent in assay medium. After 8 days of incubation at 37°, the extent of viral replication was determined by an ELISA assay which detects the late structural protein p28 of HCMV.
# Eight days after infection, the medium was aspirated from the wells. Non-specific binding sites were blocked by adding 200 μL of phosphate buffered saline containing 1% (w/v) bovine serum albumin (blocking buffer) to each well and incubating the plates for 30 min at room temperature. After removal of the blocking buffer by aspiration, the cells were fixed with 100 μL of cold ethanol-acetone solution (95:5) per well. The plates were placed at -20° for 30 min. The plates were washed 4 times with phosphate buffered saline containing 0.05% (v/v) polyoxyethylene sorbitan monolaurate (Tween®). Thereafter, 100 μL of mAb UL99 (Advanced Biotechnologies Inc., #13-130-100) recognizing HCMV protein p28 was added to each wells and plates were incubated for 2 h at room temperature. The plates were washed four times with 200 μL of the above-noted phosphate buffered saline/Tween-20® solution. The cells were then incubated with 100 μL of sheep anti-mouse IgGγ horseradish peroxidase conjugated for 2 h at room temperature. The plates were then washed four times with 200 μL of above-noted phosphate buffered saline/Tween-20® solution. Thereafter, 100 μL of ortho phenylenediamine dihydrochloride (OPD, Gibco Canada Inc.) solution was added to each well and the plates were agitated on a microplate shaker for 30 min in the dark. Color development was monitored at 450 nm using a microplate spectrophotometer.
# The SAS program was used to calculate the % inhibition of viral replication and to generate EC50 values.
# The EC50 values obtained according to this assay method for certain thiazolylphenyl derivatives of this invention are listed in the following tables under the heading ELISA CMV.
# HSV-1 helicase-primase = target: T1, HSV-1 helicase-primase (Human herpesvirus 1, UniProt P10189+P10236); test: HSV-1 DNA-dependent ATPase assay (inhibition of HSV-1 helicase-primase); type: biochemical
# T1 construct: made in house; host or cells: Sf21 insect cells triply infected with recombinant baculoviruses (UL5, UL8, UL52)
# T1 sequence (P10192 whole entry): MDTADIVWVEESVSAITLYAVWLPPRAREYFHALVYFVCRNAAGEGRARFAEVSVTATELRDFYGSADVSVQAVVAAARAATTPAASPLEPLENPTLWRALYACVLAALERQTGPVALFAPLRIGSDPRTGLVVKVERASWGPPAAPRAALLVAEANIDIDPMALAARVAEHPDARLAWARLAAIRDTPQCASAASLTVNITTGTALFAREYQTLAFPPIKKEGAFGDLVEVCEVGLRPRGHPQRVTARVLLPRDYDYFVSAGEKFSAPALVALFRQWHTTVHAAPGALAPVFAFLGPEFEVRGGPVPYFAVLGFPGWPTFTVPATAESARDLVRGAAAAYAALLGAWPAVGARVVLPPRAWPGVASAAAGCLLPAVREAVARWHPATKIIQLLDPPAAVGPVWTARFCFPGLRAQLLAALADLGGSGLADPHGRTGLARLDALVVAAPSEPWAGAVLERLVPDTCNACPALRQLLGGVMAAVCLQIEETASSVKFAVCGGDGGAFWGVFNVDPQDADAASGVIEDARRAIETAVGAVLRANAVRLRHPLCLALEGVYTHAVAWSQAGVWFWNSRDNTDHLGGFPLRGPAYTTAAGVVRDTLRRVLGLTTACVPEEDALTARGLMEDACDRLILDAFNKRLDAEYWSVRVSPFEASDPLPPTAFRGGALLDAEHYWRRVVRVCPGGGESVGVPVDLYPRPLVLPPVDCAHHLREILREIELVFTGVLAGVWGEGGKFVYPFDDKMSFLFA
# T1 sequence (P10236 whole entry): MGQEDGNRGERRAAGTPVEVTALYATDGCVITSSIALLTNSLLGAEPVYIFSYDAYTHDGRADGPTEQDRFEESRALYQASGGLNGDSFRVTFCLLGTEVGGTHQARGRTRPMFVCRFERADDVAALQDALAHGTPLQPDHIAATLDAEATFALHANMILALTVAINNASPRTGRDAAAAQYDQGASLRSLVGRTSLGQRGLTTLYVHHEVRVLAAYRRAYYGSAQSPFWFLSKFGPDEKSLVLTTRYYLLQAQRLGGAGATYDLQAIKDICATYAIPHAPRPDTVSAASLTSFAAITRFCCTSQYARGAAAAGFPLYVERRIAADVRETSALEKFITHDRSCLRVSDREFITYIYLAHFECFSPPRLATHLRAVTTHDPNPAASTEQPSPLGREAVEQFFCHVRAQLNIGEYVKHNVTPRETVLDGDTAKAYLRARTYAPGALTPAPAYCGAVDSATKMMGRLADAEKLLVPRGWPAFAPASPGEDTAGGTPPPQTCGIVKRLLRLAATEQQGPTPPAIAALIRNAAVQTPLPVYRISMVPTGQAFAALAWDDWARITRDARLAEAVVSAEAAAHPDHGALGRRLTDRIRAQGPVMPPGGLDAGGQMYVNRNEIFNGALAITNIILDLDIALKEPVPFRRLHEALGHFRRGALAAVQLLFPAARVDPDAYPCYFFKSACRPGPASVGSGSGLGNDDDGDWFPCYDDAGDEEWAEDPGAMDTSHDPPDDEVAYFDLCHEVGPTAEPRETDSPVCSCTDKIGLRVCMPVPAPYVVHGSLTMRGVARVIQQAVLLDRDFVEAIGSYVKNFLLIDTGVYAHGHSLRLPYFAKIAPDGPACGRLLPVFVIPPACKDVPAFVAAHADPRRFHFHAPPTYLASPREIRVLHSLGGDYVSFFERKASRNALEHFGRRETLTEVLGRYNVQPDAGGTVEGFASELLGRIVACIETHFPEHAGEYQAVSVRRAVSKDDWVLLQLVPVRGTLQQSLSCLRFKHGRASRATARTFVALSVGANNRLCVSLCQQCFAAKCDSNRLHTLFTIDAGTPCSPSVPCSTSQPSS
# T1 sequence (P10189 whole entry): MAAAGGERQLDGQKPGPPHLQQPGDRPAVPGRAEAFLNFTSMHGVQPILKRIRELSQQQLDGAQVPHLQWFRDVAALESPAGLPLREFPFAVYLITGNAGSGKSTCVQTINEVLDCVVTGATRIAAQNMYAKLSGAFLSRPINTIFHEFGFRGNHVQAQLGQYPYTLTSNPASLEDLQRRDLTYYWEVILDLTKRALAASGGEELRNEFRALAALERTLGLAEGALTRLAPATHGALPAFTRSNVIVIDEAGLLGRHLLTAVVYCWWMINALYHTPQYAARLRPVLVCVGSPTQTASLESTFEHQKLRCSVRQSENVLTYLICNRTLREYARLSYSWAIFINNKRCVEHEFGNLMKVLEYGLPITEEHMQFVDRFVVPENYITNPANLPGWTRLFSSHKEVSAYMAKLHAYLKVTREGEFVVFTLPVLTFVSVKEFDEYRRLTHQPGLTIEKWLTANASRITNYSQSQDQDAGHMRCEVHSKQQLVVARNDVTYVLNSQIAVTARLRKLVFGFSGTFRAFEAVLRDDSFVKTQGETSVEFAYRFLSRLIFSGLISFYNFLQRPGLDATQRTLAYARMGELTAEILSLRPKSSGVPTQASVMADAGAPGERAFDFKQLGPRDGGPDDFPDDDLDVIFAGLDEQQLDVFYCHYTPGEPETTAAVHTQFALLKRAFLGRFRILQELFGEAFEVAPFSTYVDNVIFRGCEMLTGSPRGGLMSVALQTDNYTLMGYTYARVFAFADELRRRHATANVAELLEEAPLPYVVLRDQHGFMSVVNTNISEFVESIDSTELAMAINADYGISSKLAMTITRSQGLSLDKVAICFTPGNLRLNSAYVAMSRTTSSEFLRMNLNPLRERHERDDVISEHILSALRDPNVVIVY
# From the text: A) HSV-1 DNA-Dependent ATP Assay (an in Vitro Assay Based on the Inhibition of HSV-1 Helicase-primase).
# HSV-1 helicase-primase holoenzyme was produced in triply infected Sf21 cells using recombinant baculoviruses expressing the UL5, UL8 and UL52 helicase-primase subunits, as described by S. Dracheva et al., J. Biol. Chem. 1995, 270, 14148. The crude enzyme was purified by ammonium sulfate precipitation, Source 15Q® chromatography and Sephacryl® S-300 HR gel filtration (both purification systems can be obtained from Pharmacia Biotech Inc., Montreal, Quebec, Canada), see S. Dracheva et al., supra.
# The DNA-dependent ATPase assay, described by J. J. Crute et al., Nucleic Acids Res. 1988, 16, 6585, was modified and used to evaluate the capability of the compounds of Group 1-formula 1 to inhibit HSV-1 helicase-primase activity. The reaction mixtures (80 μL each) contained 40 mM 4-(2-hydroxyethyl)-1-piperazineethanesulfonic acid (HEPES, pH 7.5), 10% (v/v) glycerol, 5.5 mM MgCl2, 1 mM DL-dithiothreitol (DTT), 50 μg/mL acetylated bovine serum albumin, 3.3% (v/v) DMSO, 4 mM ATP, 25 μM single-stranded M13 DNA hybridized to double-tailed 68-mer oligonucleotide and 3 μg/mL HSV-1 helicase-primase. After incubation for 20 min at 34°, formation of inorganic phosphate from hydrolysis of ATP was monitored spectrophotometrically at 650 nm using acidic ammonium molybdate/malachite green reagent, P. A. Lanzetta et al., Anal. Biochem. 1979, 100, 95. DNA-dependent ATPase activity was calculated from the net absorbance change in the presence and absence of inhibition.
# HCMV (strain AD169) [2] = test: Inhibition of HCMV replication, plaque reduction assay (PRA, Hs-68 cells); type: cell-based, Human Cytomegalovirus (HCMV); conditions: read-out: PRA CMV EC50
# Experimental: as §1, §2
# Hs-68 cells (ATCC # CRL 1635) were seeded in 12-well plates at 83,000 cells/well in 1 mL of DMEM medium (Gibco Canada Inc.) supplemented with 10% fetal bovine serum (FBS, Gibco Canada Inc.). The plates were incubated for 3 days at 37° to allow the cells to reach 80-90% confluency prior to the assay.
# The medium was removed from the cells by aspiration. The cells were then infected with approximately 50 PFU of HCMV (strain AD169, ATCC VR-538) in DMEM medium supplemented with 5% inactivated FBS (assay medium). The virus was allowed to adsorb to cells for 2 h at 37°. Following viral adsorption, the medium was removed from the wells by aspiration. The cells were then incubated with or without 1 mL of appropriate concentrations of test reagent in assay medium. After 4 days of incubation at 37°, the medium was exchanged with fresh medium containing test compound and 4 days later the cells were fixed with 1% aqueous formaldehyde and stained with a 2% crystal violet solution in 20% ethanol in water. Microscopic plaques were counted using a stereomicroscope. Drug effects were calculated as a percent reduction in the number of plaques in the presence of each drug concentration compared to the number observed in the absence of drug. Ganciclovir was used as a positive control in all experiments.
# The EC50 values obtained according to this assay for certain thiazolyl derivatives of this invention are listed in the following tables under the heading PRA CMV.
# [3] = Human betaherpesvirus 5, AD169, Hs68, Group 1 Table 5 entries
# [4] = Human alphaherpesvirus 1, BHK-21, Group 1 Table 1 entries
# [5] = Human betaherpesvirus 5, AD169, Hs68, Group 1 Table 1 entries
# [6] = Human betaherpesvirus 5, AD169, Hs68, Group 2 Table 1 entries
SMILES,IC50 (HSV-1 helicase-primase; Group 1 Table 1 entries) [µM],EC50 (HCMV (strain AD169) [2]; [5]) [µM],further results
Nc1nc(-c2ccc(NC(=O)[C@@H](Cc3ccccc3)NC(=O)C3CCCCC3)cc2)cs1 [Example 2],,,"EC50 (HSV-1 strain F or KOS; Human alphaherpesvirus 1, BHK-21, Group 1 Table 5 entries): 0.17 µM; EC50 (HCMV (strain AD169) [1]; [3]): 52 µM"
CN(C(=O)CNCc1ccccc1)c1ccc(-c2csc(N)n2)cc1 [Example 3],,,"IC50 (HSV-1 helicase-primase; Group 1 Table 3 entries): 13 µM; EC50 (HSV-1 strain F or KOS; Human alphaherpesvirus 1, BHK-21, Group 1 Table 3 entries): 4 µM; EC50 (HCMV (strain AD169) [2]; Human betaherpesvirus 5, AD169, Hs68, Group 1 Table 3 entries): 80 µM"
Nc1nc(-c2ccc(NC(=O)CNCc3ccc(F)cc3)cc2)cs1 [Example 4],3.5,16,EC50 (HSV-1 strain F or KOS; [4]): 1.8 µM
Nc1nc(-c2ccc(NC(=O)CCN(Cc3ccccc3)C(=O)c3cccnc3)cc2)cs1 [Example 6],,,"EC50 (HSV-1 strain F or KOS; Human alphaherpesvirus 1, BHK-21, Group 1 Table 2 entries): 4.8 µM; EC50 (HCMV (strain AD169) [2]; Human betaherpesvirus 5, AD169, Hs68, Group 1 Table 2 entries): 22 µM"
Nc1nc(-c2ccc(NC(=O)[C@@H]3CCCN3Cc3ccccc3)cc2)cs1 [Example 7],,,"EC50 (HSV-1 strain F or KOS; Human alphaherpesvirus 1, BHK-21, Group 1 Table 6 entries): 1.1 µM; EC50 (HCMV (strain AD169) [1]; Human betaherpesvirus 5, AD169, Hs68, Group 1 Table 6 entries): > 33 µM"
Nc1nc(-c2ccc(NC(=O)NCCc3ccccc3)cc2)cs1 [Example 13],,,IC50 (HSV-1 helicase-primase; Group 2 Table 1 entries): 37 µM; EC50 (HCMV (strain AD169) [2]; [6]): > 4 µM
C#CCNC(=O)Nc1ccc(-c2csc(N)n2)cc1 [Example 17],,,IC50 (HSV-1 helicase-primase; Group 2 Table 1 entries): 33 µM; EC50 (HCMV (strain AD169) [2]; [6]): > 74 µM
CN[C@H](Cc1ccccc1)C(=O)Nc1ccc(-c2csc(N)n2)cc1 [Example 18],,,IC50 (HSV-1 helicase-primase; Group 1 Table 5 entries): 24.5 µM; EC50 (HCMV (strain AD169) [2]; [3]): > 48 µM
Nc1nc(-c2ccc(NC(=O)CNC(=O)c3ccccn3)cc2)cs1 [Example 19],13,20,EC50 (HSV-1 strain F or KOS; [4]): 4.5 µM
Nc1nc(-c2ccc(NC(=O)CNC(=O)c3cccnc3)cc2)cs1 [Example 20],23,60,
Nc1nc(-c2ccc(NC(=O)CNC(=O)c3ccncc3)cc2)cs1 [Example 21],4.2,> 71,EC50 (HSV-1 strain F or KOS; [4]): 1.3 µM
Nc1nc(-c2ccc(NC(=O)N[C@H](CO)Cc3ccccc3)cc2)cs1 [Example 28],,,IC50 (HSV-1 helicase-primase; Group 2 Table 1 entries): 6.6 µM; EC50 (HCMV (strain AD169) [2]; [6]): 30 µM
Nc1nc(-c2ccc(NC(=O)CN(Cc3ccccc3)C(=O)C3CCCCCC3)cc2)cs1 [Example 37],0.029,> 74,EC50 (HSV-1 strain F or KOS; [4]): 0.002 µM
Nc1nc(-c2ccc(NC(=O)CN(Cc3ccc(Cl)cc3)C(=O)C3CCCCC3)cc2)cs1 [Example 45],0.05,5.5,EC50 (HSV-1 strain F or KOS; [4]): 0.001 µM
NCC(=O)N(CC(=O)Nc1ccc(-c2csc(N)n2)cc1)Cc1ccccc1 [Example 71],30,> 32,
Nc1nc(-c2ccc(NC(=O)CN(Cc3ccccc3)C(=O)COc3ccccc3)cc2)cs1 [Example 120],0.54,15,
Nc1nc(-c2ccc(NC(=O)CN(CCc3ccccc3)C(=O)c3ccncc3)cc2)cs1 [Example 125],0.159,80,
Cc1ccccc1CN(CC(=O)Nc1ccc(-c2csc(N)n2)cc1)C(=O)Cc1cccs1 [Example 131],,16,
Cc1ccccc1CN(CC(=O)Nc1ccc(-c2csc(N)n2)cc1)C(=O)Cc1ccsc1 [Example 132],,14,
Cc1ccccc1CN(CC(=O)Nc1ccc(-c2csc(N)n2)cc1)C(=O)c1ccsc1 [Example 133],,17,
C[C@@H](c1ccccc1)N(CC(=O)Nc1ccc(-c2csc(N)n2)cc1)C(=O)c1cccnc1 [Example 134],0.26,18,
C[C@H](c1ccccc1)N(CC(=O)Nc1ccc(-c2csc(N)n2)cc1)C(=O)Cc1ccccn1 [Example 136],4.2,31,
C[C@H](c1ccccc1)N(CC(=O)Nc1ccc(-c2csc(N)n2)cc1)C(=O)c1ccncc1 [Example 137],0.98,49,
